Measurements published in ChEMBL document CHEMBL4393686, “InCl3 mediated heteroarylation of indoles and their derivatization via CH activation strategy: Discovery of 2-(1H-indol-3-yl)-quinoxaline derivatives as a new class of PDE4B selective inhibitors for arthritis and/or multiple sclerosis” (Eur J Med Chem, 2019).
Calls of active or inactive are those of the source. The calls are words filed in the database; no cut-off is given here.

Experiments:
[1] = target: 3',5'-cyclic-AMP phosphodiesterase 7B (Homo sapiens) (UniProt Q9NP56); test: Inhibition of recombinant N-terminal GST tagged and C-terminal His-tagged human PDE7B (109-ens aa) expressed in Sf9 cells using FAM-cAMP as substrate at 1xIC50 incubated for 60 mins by fluorescence plate reader analysis
[2] = target: High affinity cAMP-specific and IBMX-insensitive 3',5'-cyclic phosphodiesterase 8A (Homo sapiens) (UniProt O60658); test: Inhibition of recombinant N-terminal GST-tagged full length human PDE8A1 expressed in Sf9 cells using FAM-cAMP as substrate at 0.1xIC50 incubated for 60 mins by fluorescence plate reader analysis
[3] = target: 3',5'-cyclic-AMP phosphodiesterase 7B (Homo sapiens) (UniProt Q9NP56); test: Inhibition of recombinant N-terminal GST tagged and C-terminal His-tagged human PDE7B (109-ens aa) expressed in Sf9 cells using FAM-cAMP as substrate at 0.1xIC50 incubated for 60 mins by fluorescence plate reader analysis
[4] = target: High affinity cAMP-specific and IBMX-insensitive 3',5'-cyclic phosphodiesterase 8A (Homo sapiens) (UniProt O60658); test: Inhibition of recombinant N-terminal GST-tagged full length human PDE8A1 expressed in Sf9 cells using FAM-cAMP as substrate at 10xIC50 incubated for 60 mins by fluorescence plate reader analysis
[5] = target: High affinity cAMP-specific and IBMX-insensitive 3',5'-cyclic phosphodiesterase 8A (Homo sapiens) (UniProt O60658); test: Inhibition of recombinant N-terminal GST-tagged full length human PDE8A1 expressed in Sf9 cells using FAM-cAMP as substrate at 1xIC50 incubated for 60 mins by fluorescence plate reader analysis
[6] = tested on: Danio rerio; test: Anti-sclerotic activity in MOG/CFA-induced zebra fish EAE model assessed as reduction in lesion score at 1 mg/kg, po measured for 7 days; format: functional, organism-based
[7] = Inhibition of recombinant N-terminal GST-tagged full length human PDE4A1A expressed in Sf9 cells using cAMP as substrate at 0.1xIC50 incubated for 60 mins by fluorescence plate reader analysis
[8] = target: 3',5'-cyclic-AMP phosphodiesterase 4A (Homo sapiens) (UniProt P27815); test: Inhibition of recombinant N-terminal GST tagged human PDE4A4B (2-end aa) expressed in Sf9 cells using FAM-cAMP as substrate at 1xIC50 incubated for 60 mins by fluorescence plate reader analysis
[9] = target: 3',5'-cyclic-AMP phosphodiesterase 4A (Homo sapiens) (UniProt P27815); test: Inhibition of recombinant N-terminal GST tagged human PDE4A4B (2-end aa) expressed in Sf9 cells using FAM-cAMP as substrate at 10xIC50 incubated for 60 mins by fluorescence plate reader analysis
[10] = Inhibition of recombinant N-terminal GST-tagged full length human PDE4A1A expressed in Sf9 cells using cAMP as substrate at 1xIC50 incubated for 60 mins by fluorescence plate reader analysis
[11] = target: 3',5'-cyclic-AMP phosphodiesterase 4A (Homo sapiens) (UniProt P27815); test: Inhibition of recombinant N-terminal GST tagged human PDE4A4B (2-end aa) expressed in Sf9 cells using FAM-cAMP as substrate at 0.1xIC50 incubated for 60 mins by fluorescence plate reader analysis
[12] = Inhibition of recombinant N-terminal GST-tagged full length human PDE4A1A expressed in Sf9 cells using cAMP as substrate at 10xIC50 incubated for 60 mins by fluorescence plate reader analysis
[13] = target: 3',5'-cyclic-AMP phosphodiesterase 4D (Homo sapiens, UniProt Q08499); test: Inhibition of PDE4D2 (unknown origin) using cAMP as substrate preincubated with enzyme for 15 mins followed by substrate addition and incubated for 1 hr by PDELight HTS cAMP phosphodiesterase Kit based luminometry
[14] = target: T1, 3',5'-cyclic-AMP phosphodiesterase 4B (Homo sapiens, UniProt Q07343); test: Inhibition of recombinant His-tagged human PDE4B expressed in Sf9 cells using cAMP as substrate preincubated with enzyme for 15 mins followed by substrate addition and incubated for 1 hr by PDELight HTS cAMP phosphodiesterase Kit based luminometry
[15] = species: Homo sapiens; test: Selectivity index, ratio of IC50 for PDE4D2 (unknown origin) to IC50 for recombinant His-tagged human PDE4B expressed in sf9 cells using cAMP as substrate by PDELight HTS cAMP phosphodiesterase Kit based luminometry
[16] = target: T1, 3',5'-cyclic-AMP phosphodiesterase 4B; test: Inhibition of human recombinant His-tagged PDE4B expressed in Sf9 cells using cAMP as substrate at 10 uM preincubated with enzyme for 15 mins followed by substrate addition and incubated for 1 hr by PDELight HTS cAMP phosphodiesterase Kit based luminometry relative to control
[17] = target: T1, 3',5'-cyclic-AMP phosphodiesterase 4B; test: Inhibition of recombinant His-tagged PDE4B (unknown origin) expressed in Sf9 cells using cAMP as substrate preincubated for 15 mins followed by substrate addition and incubated for 1 hr by PDELight HTS cAMP phosphodiesterase Kit based luminometry
[18] = Selectivity for recombinant His-tagged PDE4B (unknown origin) expressed in Sf9 cells over PDE4D2 (unknown origin); conditions: Homo sapiens
[19] = Toxicity in zebrafish embryo assessed as effect in liver formation at 3000 uM; design: species or system Danio rerio; conditions: in vivo
[20] = Toxicity in zebrafish embryo assessed as effect in heart formation at 3000 uM; format: tissue-based, Danio rerio; conditions: in vivo
[21] = Toxicity in zebrafish embryo assessed as effect in upper jaw formation at 3000 uM; design: species or system Danio rerio; conditions: in vivo
[22] = Toxicity in zebrafish embryo assessed as effect in notochord formation at 3000 uM; design: species or system Danio rerio; conditions: in vivo
[23] = Toxicity in zebrafish embryo assessed as effect in tail formation at 3000 uM; design: species or system Danio rerio; conditions: in vivo
[24] = Toxicity in zebrafish embryo assessed as effect in brain formation at 3000 uM; format: tissue-based, Danio rerio; conditions: in vivo
[25] = Toxicity in zebrafish embryo assessed as change in body shape at 3000 uM; design: species or system Danio rerio; conditions: in vivo
[26] = Toxicity in zebrafish embryo assessed as effect in intestine formation at 3000 uM; format: tissue-based, Danio rerio; conditions: in vivo
[27] = Toxicity in zebrafish embryo assessed as effect in fin formation at 3000 uM; design: species or system Danio rerio; conditions: in vivo
[28] = Toxicity in zebrafish embryo assessed as effect in somite formation at 3000 uM; design: species or system Danio rerio; conditions: in vivo
[29] = Toxicity in zebrafish embryo assessed as effect in swim bladder formation at 3000 uM; design: species or system Danio rerio; conditions: in vivo
[30] = Toxicity in zebrafish embryo assessed as effect in lower jaw formation at 3000 uM; design: species or system Danio rerio; conditions: in vivo

Chain of High affinity cAMP-specific and IBMX-insensitive 3',5'-cyclic phosphodiesterase 8A (Homo sapiens) (O60658 whole entry): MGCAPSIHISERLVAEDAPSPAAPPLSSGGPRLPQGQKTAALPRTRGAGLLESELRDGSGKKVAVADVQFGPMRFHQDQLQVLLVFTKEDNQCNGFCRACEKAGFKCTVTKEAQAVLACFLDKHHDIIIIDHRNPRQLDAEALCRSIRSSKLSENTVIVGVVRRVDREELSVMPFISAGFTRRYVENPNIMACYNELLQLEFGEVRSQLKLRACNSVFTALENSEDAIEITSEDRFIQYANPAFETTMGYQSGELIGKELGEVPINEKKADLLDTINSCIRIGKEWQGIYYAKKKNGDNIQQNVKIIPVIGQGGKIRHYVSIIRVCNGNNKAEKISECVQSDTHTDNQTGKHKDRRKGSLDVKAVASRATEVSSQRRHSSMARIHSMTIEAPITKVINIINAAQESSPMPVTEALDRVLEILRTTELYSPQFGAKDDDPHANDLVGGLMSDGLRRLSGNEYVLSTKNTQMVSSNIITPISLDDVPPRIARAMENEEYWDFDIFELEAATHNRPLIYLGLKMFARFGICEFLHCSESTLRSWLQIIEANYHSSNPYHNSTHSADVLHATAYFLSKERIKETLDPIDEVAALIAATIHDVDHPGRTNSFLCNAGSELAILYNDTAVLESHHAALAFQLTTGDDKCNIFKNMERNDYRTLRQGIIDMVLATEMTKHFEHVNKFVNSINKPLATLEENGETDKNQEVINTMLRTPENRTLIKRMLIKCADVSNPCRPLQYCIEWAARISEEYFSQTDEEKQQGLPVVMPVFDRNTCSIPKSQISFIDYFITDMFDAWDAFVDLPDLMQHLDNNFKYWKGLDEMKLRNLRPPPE
T1 sequence (Q07343 whole entry): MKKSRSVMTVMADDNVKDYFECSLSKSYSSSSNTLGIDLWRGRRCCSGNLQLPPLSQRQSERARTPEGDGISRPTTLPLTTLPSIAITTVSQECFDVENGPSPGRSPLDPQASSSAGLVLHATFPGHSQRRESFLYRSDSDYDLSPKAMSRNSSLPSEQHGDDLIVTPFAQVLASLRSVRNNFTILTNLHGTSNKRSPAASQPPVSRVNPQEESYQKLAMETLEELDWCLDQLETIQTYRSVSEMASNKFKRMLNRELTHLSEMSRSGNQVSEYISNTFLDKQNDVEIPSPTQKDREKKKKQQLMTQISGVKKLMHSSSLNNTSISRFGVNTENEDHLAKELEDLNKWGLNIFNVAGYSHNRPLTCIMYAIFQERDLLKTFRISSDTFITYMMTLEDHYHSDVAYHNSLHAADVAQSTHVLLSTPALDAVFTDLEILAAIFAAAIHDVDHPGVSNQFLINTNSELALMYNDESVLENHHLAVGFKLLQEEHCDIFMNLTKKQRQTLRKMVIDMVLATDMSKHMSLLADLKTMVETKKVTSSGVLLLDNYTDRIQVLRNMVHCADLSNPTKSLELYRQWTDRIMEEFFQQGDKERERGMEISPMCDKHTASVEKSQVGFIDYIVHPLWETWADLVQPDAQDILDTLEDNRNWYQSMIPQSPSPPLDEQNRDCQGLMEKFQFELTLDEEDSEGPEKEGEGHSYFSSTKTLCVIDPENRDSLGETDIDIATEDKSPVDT
Chain of 3',5'-cyclic-AMP phosphodiesterase 4A (Homo sapiens) (P27815 whole entry): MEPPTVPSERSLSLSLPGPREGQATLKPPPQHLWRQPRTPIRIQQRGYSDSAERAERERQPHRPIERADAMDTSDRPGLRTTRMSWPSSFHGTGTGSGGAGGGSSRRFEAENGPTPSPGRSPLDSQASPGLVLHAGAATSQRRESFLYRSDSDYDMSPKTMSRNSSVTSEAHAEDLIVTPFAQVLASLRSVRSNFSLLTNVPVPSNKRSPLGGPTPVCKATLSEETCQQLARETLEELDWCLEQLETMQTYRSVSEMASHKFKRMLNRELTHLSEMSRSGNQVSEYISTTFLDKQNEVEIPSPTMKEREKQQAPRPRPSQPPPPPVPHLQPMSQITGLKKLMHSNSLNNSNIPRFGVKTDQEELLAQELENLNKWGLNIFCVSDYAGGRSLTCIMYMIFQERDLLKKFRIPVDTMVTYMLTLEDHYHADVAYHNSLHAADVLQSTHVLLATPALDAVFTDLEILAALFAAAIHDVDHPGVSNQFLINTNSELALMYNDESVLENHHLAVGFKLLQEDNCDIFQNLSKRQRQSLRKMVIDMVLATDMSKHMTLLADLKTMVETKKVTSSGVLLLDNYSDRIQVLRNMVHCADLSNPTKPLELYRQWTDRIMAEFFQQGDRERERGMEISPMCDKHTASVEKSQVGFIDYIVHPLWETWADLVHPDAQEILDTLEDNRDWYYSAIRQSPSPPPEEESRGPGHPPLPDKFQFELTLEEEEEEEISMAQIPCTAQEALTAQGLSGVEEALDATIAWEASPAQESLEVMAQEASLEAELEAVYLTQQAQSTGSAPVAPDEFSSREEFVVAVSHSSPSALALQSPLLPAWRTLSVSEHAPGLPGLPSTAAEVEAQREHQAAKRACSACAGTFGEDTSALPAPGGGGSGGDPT
Chain of 3',5'-cyclic-AMP phosphodiesterase 4D (Q08499 whole entry): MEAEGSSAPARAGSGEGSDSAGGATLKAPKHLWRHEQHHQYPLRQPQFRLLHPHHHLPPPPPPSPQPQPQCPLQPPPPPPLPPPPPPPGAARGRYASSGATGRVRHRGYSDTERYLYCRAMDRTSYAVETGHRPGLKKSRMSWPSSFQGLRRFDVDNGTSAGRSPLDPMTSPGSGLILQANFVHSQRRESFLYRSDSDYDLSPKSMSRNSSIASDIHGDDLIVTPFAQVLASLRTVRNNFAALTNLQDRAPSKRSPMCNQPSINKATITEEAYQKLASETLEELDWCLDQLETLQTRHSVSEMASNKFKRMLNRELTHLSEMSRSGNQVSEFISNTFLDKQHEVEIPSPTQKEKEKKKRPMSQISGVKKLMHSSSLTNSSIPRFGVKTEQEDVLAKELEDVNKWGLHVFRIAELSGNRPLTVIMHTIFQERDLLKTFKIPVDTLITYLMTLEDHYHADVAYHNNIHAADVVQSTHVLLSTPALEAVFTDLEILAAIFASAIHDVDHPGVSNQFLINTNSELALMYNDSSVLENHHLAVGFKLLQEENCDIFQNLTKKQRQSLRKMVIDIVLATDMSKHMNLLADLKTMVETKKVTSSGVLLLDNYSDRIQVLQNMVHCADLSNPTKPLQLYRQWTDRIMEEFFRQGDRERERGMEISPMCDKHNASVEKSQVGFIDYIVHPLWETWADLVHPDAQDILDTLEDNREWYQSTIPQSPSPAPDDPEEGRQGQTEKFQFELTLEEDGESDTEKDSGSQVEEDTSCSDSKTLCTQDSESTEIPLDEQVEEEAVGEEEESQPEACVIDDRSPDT
Chain of 3',5'-cyclic-AMP phosphodiesterase 7B (Homo sapiens) (Q9NP56 whole entry): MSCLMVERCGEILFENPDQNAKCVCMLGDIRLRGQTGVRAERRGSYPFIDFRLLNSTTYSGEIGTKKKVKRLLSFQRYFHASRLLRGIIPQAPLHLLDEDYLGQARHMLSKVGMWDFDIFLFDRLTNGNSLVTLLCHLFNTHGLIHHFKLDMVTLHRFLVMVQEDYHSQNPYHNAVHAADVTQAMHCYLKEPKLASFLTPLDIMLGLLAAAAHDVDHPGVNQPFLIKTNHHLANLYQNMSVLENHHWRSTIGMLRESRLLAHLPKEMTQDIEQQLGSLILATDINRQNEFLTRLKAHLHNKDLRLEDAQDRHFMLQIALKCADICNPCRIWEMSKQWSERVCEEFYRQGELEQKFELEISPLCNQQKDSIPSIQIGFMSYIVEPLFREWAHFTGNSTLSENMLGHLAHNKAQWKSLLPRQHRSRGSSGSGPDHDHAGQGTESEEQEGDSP

SMILES: OCCN(CCO)c1nc(N2CCCCC2)c2nc(N(CCO)CCO)nc(N3CCCCC3)c2n1
- inhibition [1]: 48%
- inhibition [2]: 13%
- inhibition [3]: 3%
- inhibition [4]: 88%
- inhibition [5]: 55%

SMILES: CCCCCCCCc1ccc(CCC(N)(CO)CO)cc1
- inhibition [6]: Active

SMILES: CCOc1cc([C@@H](CS(C)(=O)=O)N2C(=O)c3cccc(NC(C)=O)c3C2=O)ccc1OC
- inhibition [7]: 13%
- inhibition [8]: 57%
- inhibition [9]: 91%
- inhibition [10]: 58%
- inhibition [11]: 8%
- inhibition [12]: 89%

SMILES: CCC(C)n1cc(-c2nc3ccccc3nc2Cl)c2cc(OC)ccc21 (stereo not drawn)
- IC50 [13]: 4.93 µM
- IC50 [14]: 1.04 µM
- Ratio IC50 [15]: 4.75
- inhibition [16]: > 75%

SMILES: CC(C)n1cc(-c2nc3ccccc3nc2Cl)c2cc(Br)ccc21
- IC50 [14]: 9.74 µM
- inhibition [16]: > 75%

SMILES: CCOC(=O)/C=C/c1c(-c2nc3ccccc3nc2Cl)c2cc(OC)ccc2n1C(C)C
- IC50 [14]: 5.58 µM
- inhibition [16]: > 75%

SMILES: Cc1cc2c(s1)N(Cc1cc3cc(Br)ccc3n1S(C)(=O)=O)c1ccccc1N=C2N1CCN(C)CC1
- IC50 [17]: 1.1 µM
- Selectivity ratio [18]: > 10

SMILES: CCC1(c2ccccc2)C(=O)NC(=O)NC1=O [PHENOBARBITAL]
- Activity [19]: Toxic
- Activity [20]: Toxic
- Activity [21]: Toxic
- Activity [22]: Toxic
- Activity [23]: Toxic
- Activity [24]: Toxic
- Activity [25]: Toxic
- Activity [26]: Toxic
- Activity [27]: Toxic
- Activity [28]: Toxic
- Activity [29]: Toxic
- Activity [30]: Toxic

SMILES: C=CCn1cc(-c2nc3ccccc3nc2Cl)c2ccccc21
- IC50 [13]: 22 µM
- IC50 [14]: 4.67 µM
- Ratio IC50 [15]: 4.8
- inhibition [16]: > 75%
